Numbers after ± are expanded uncertainties.
Assay: molar heat capacity at constant pressure; xn = mol fraction of the nth substance listed
Settings: 101 kPa, Crystal, relaxation calorimetry - PPMS by Quantum Design

[Cl-].[K+] [potassium chloride] + [Cl-].[Na+]
Settings | molar heat capacity at constant pressure [J/K/mol]
5.041 K, x2 = 0.9 | 0.0176 ± 0.0013
5.086 K, x2 = 0.2 | 0.0361 ± 0.0027
5.095 K, x2 = 0.1 | 0.0387 ± 0.0028
5.409 K, x2 = 0.9 | 0.0219 ± 0.0014
5.454 K, x2 = 0.2 | 0.0452 ± 0.003
5.458 K, x2 = 0.1 | 0.0485 ± 0.0031
5.793 K, x2 = 0.9 | 0.027 ± 0.0016
5.856 K, x2 = 0.2 | 0.0564 ± 0.0034
5.879 K, x2 = 0.1 | 0.0601 ± 0.0035
6.208 K, x2 = 0.9 | 0.0335 ± 0.0019
6.274 K, x2 = 0.2 | 0.07 ± 0.0039
6.294 K, x2 = 0.1 | 0.0738 ± 0.0041
6.664 K, x2 = 0.9 | 0.0417 ± 0.0022
6.728 K, x2 = 0.2 | 0.0878 ± 0.0047
6.752 K, x2 = 0.1 | 0.0936 ± 0.0049
7.14 K, x2 = 0.9 | 0.0518 ± 0.0026
7.176 K, x2 = 0.2 | 0.1084 ± 0.0056
7.188 K, x2 = 0.1 | 0.1141 ± 0.0058
7.653 K, x2 = 0.9 | 0.0641 ± 0.003
7.691 K, x2 = 0.2 | 0.1356 ± 0.0067
7.702 K, x2 = 0.1 | 0.1425 ± 0.0069
8.202 K, x2 = 0.9 | 0.0801 ± 0.0036
8.238 K, x2 = 0.2 | 0.1702 ± 0.0079
8.252 K, x2 = 0.1 | 0.1787 ± 0.0082
8.791 K, x2 = 0.9 | 0.1001 ± 0.0043
8.829 K, x2 = 0.2 | 0.215 ± 0.0095
8.84 K, x2 = 0.1 | 0.2244 ± 0.0099
9.422 K, x2 = 0.9 | 0.1252 ± 0.0047
9.461 K, x2 = 0.2 | 0.2712 ± 0.011
9.475 K, x2 = 0.1 | 0.2828 ± 0.011
10.1 K, x2 = 0.9 | 0.157 ± 0.0061
10.14 K, x2 = 0.2 | 0.3435 ± 0.013
10.15 K, x2 = 0.1 | 0.357 ± 0.014
10.83 K, x2 = 0.9 | 0.198 ± 0.0073
10.87 K, x2 = 0.2 | 0.4354 ± 0.016
10.89 K, x2 = 0.1 | 0.4512 ± 0.017
11.61 K, x2 = 0.9 | 0.2499 ± 0.0089
11.65 K, x2 = 0.2 | 0.5511 ± 0.019
11.67 K, x2 = 0.1 | 0.5685 ± 0.02
12.45 K, x2 = 0.9 | 0.3169 ± 0.011
12.48 K, x2 = 0.2 | 0.6946 ± 0.023
12.5 K, x2 = 0.1 | 0.7153 ± 0.024
13.34 K, x2 = 0.9 | 0.4021 ± 0.013
13.38 K, x2 = 0.2 | 0.8732 ± 0.028
13.4 K, x2 = 0.1 | 0.8969 ± 0.028
14.23 K, x2 = 0.9 | 0.51 ± 0.016
14.34 K, x2 = 0.2 | 1.092 ± 0.033
14.36 K, x2 = 0.1 | 1.12 ± 0.034
15.33 K, x2 = 0.9 | 0.6479 ± 0.019
15.37 K, x2 = 0.2 | 1.362 ± 0.039
15.39 K, x2 = 0.1 | 1.395 ± 0.04
16.43 K, x2 = 0.9 | 0.8219 ± 0.024
16.47 K, x2 = 0.2 | 1.691 ± 0.046
16.49 K, x2 = 0.1 | 1.726 ± 0.047
17.61 K, x2 = 0.9 | 1.04 ± 0.029
17.65 K, x2 = 0.2 | 2.087 ± 0.055
17.67 K, x2 = 0.1 | 2.125 ± 0.056
18.87 K, x2 = 0.9 | 1.31 ± 0.035
18.91 K, x2 = 0.2 | 2.55 ± 0.064
18.94 K, x2 = 0.1 | 2.599 ± 0.065
20.24 K, x2 = 0.9 | 1.649 ± 0.042
20.26 K, x2 = 0.2 | 3.105 ± 0.076
20.29 K, x2 = 0.1 | 3.156 ± 0.076
21.7 K, x2 = 0.9 | 2.061 ± 0.051
21.71 K, x2 = 0.2 | 3.756 ± 0.089
21.74 K, x2 = 0.1 | 3.81 ± 0.09
23.25 K, x2 = 0.9 | 2.563 ± 0.062
23.26 K, x2 = 0.2 | 4.514 ± 0.1
23.29 K, x2 = 0.1 | 4.578 ± 0.1
24.92 K, x2 = 0.9 | 3.165 ± 0.074
24.93 K, x2 = 0.2 | 5.396 ± 0.12
24.96 K, x2 = 0.1 | 5.463 ± 0.12
26.71 K, x2 = 0.9 | 3.859 ± 0.088
26.72 K, x2 = 0.2 | 6.429 ± 0.14
26.74 K, x2 = 0.1 | 6.508 ± 0.14
28.63 K, x2 = 0.2 | 7.596 ± 0.16
28.64 K, x2 = 0.9 | 4.716 ± 0.1
28.66 K, x2 = 0.1 | 7.674 ± 0.16
30.69 K, x2 = 0.2 | 8.768 ± 0.19
30.7 K, x2 = 0.9 | 5.671 ± 0.12
30.71 K, x2 = 0.1 | 8.824 ± 0.19
32.89 K, x2 = 0.2 | 10.16 ± 0.21
32.9 K, x2 = 0.9 | 6.785 ± 0.15
32.91 K, x2 = 0.1 | 10.29 ± 0.22
35.25 K, x2 = 0.2 | 11.67 ± 0.24
35.27 K, x2 = 0.9 | 8.039 ± 0.17
35.28 K, x2 = 0.1 | 11.82 ± 0.24
37.78 K, x2 = 0.2 | 13.3 ± 0.27
37.81 K, x2 = 0.1 | 13.48 ± 0.28
37.81 K, x2 = 0.9 | 9.437 ± 0.2
40.5 K, x2 = 0.2 | 15.06 ± 0.31
40.52 K, x2 = 0.1 | 15.25 ± 0.31
40.53 K, x2 = 0.9 | 10.98 ± 0.23
43.41 K, x2 = 0.2 | 16.89 ± 0.34
43.43 K, x2 = 0.1 | 17.11 ± 0.35
43.45 K, x2 = 0.9 | 12.63 ± 0.26
46.53 K, x2 = 0.2 | 18.81 ± 0.38
46.57 K, x2 = 0.1 | 19.04 ± 0.39
46.58 K, x2 = 0.9 | 14.4 ± 0.29
49.87 K, x2 = 0.2 | 20.73 ± 0.42
49.91 K, x2 = 0.1 | 21.01 ± 0.42
49.93 K, x2 = 0.9 | 16.28 ± 0.33
53.47 K, x2 = 0.2 | 22.73 ± 0.46
53.5 K, x2 = 0.1 | 23 ± 0.46
53.53 K, x2 = 0.9 | 18.23 ± 0.37
57.32 K, x2 = 0.2 | 24.73 ± 0.5
57.34 K, x2 = 0.1 | 25.02 ± 0.5
57.38 K, x2 = 0.9 | 20.25 ± 0.41
61.44 K, x2 = 0.2 | 26.7 ± 0.54
61.47 K, x2 = 0.1 | 26.98 ± 0.54
61.51 K, x2 = 0.9 | 22.26 ± 0.45
65.86 K, x2 = 0.2 | 28.67 ± 0.57
65.89 K, x2 = 0.1 | 28.95 ± 0.58
65.94 K, x2 = 0.9 | 24.31 ± 0.49
70.6 K, x2 = 0.2 | 30.6 ± 0.61
70.63 K, x2 = 0.1 | 30.88 ± 0.62
70.69 K, x2 = 0.9 | 26.32 ± 0.53
75.67 K, x2 = 0.2 | 32.39 ± 0.65
75.7 K, x2 = 0.1 | 32.61 ± 0.65
75.77 K, x2 = 0.9 | 28.27 ± 0.57
81.11 K, x2 = 0.2 | 34.17 ± 0.68
81.13 K, x2 = 0.1 | 34.4 ± 0.69
81.21 K, x2 = 0.9 | 30.13 ± 0.6
86.93 K, x2 = 0.2 | 35.85 ± 0.72
86.95 K, x2 = 0.1 | 36.07 ± 0.72
87.05 K, x2 = 0.9 | 32.29 ± 0.65
93.14 K, x2 = 0.1 | 37.49 ± 0.75
93.15 K, x2 = 0.2 | 37.32 ± 0.75
93.3 K, x2 = 0.9 | 34.01 ± 0.68
99.83 K, x2 = 0.1 | 39.05 ± 0.78
99.85 K, x2 = 0.2 | 38.84 ± 0.78
100.02 K, x2 = 0.9 | 35.79 ± 0.72
107.02 K, x2 = 0.1 | 40.33 ± 0.81
107.03 K, x2 = 0.2 | 40.15 ± 0.8
107.21 K, x2 = 0.9 | 37.38 ± 0.75
114.72 K, x2 = 0.1 | 41.63 ± 0.83
114.72 K, x2 = 0.2 | 41.45 ± 0.83
114.92 K, x2 = 0.9 | 38.92 ± 0.78
122.97 K, x2 = 0.1 | 42.71 ± 0.85
122.97 K, x2 = 0.2 | 42.57 ± 0.85
123.18 K, x2 = 0.9 | 40.27 ± 0.81
131.81 K, x2 = 0.1 | 43.7 ± 0.87
131.82 K, x2 = 0.2 | 43.53 ± 0.87
132.04 K, x2 = 0.9 | 41.45 ± 0.83
141.3 K, x2 = 0.1 | 44.69 ± 0.89
141.3 K, x2 = 0.2 | 44.51 ± 0.89
141.54 K, x2 = 0.9 | 42.61 ± 0.85
151.45 K, x2 = 0.2 | 45.39 ± 0.91
151.46 K, x2 = 0.1 | 45.56 ± 0.91
151.71 K, x2 = 0.9 | 43.67 ± 0.87
162.35 K, x2 = 0.2 | 46.18 ± 0.92
162.37 K, x2 = 0.1 | 46.3 ± 0.93
162.61 K, x2 = 0.9 | 44.81 ± 0.9
174.02 K, x2 = 0.2 | 46.93 ± 0.94
174.06 K, x2 = 0.1 | 47.07 ± 0.94
174.32 K, x2 = 0.9 | 45.52 ± 0.91
186.55 K, x2 = 0.2 | 47.5 ± 0.95
186.58 K, x2 = 0.1 | 47.69 ± 0.95
186.88 K, x2 = 0.9 | 46.21 ± 0.92
199.96 K, x2 = 0.2 | 48.19 ± 0.96
199.99 K, x2 = 0.1 | 48.31 ± 0.97
200.33 K, x2 = 0.9 | 47.11 ± 0.94
214.35 K, x2 = 0.2 | 48.72 ± 0.97
214.36 K, x2 = 0.1 | 48.85 ± 0.98
214.74 K, x2 = 0.9 | 47.78 ± 0.96
229.74 K, x2 = 0.2 | 49.19 ± 0.98
229.76 K, x2 = 0.1 | 49.26 ± 0.98
230.17 K, x2 = 0.9 | 48.37 ± 0.97
246.25 K, x2 = 0.2 | 49.8 ± 1
246.27 K, x2 = 0.1 | 49.83 ± 1
246.73 K, x2 = 0.9 | 49.07 ± 0.98
263.91 K, x2 = 0.2 | 50.18 ± 1
263.93 K, x2 = 0.1 | 50.3 ± 1
264.44 K, x2 = 0.9 | 49.55 ± 0.99
282.86 K, x2 = 0.2 | 50.68 ± 1
282.87 K, x2 = 0.1 | 50.88 ± 1
283.42 K, x2 = 0.9 | 50.22 ± 1
303.12 K, x2 = 0.2 | 51.21 ± 1
303.18 K, x2 = 0.1 | 51.27 ± 1
303.77 K, x2 = 0.9 | 50.61 ± 1
